# PubChem BioAssay (NCI)
#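 All cell lines were grown in 96-well plates and treated with compound for 48 hours. Definition used: TGI = concentration required for complete inhibition of growth.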
# Assays:
# Assay in all cases: NCI tumour cell line growth inhibition, 48 h
# [1] = test system: IGROV1 ovarian
# [2] = test system: MDA-MB-231 breast
# [3] = test system: SK-MEL-2 melanoma
# [4] = test system: OVCAR-4 ovarian
# [5] = test system: 786-0 renal
# [6] = test system: PC-3 prostate
# [7] = test system: MOLT-4 leukemia
# [8] = test system: HOP-62 NSCLC
# [9] = test system: SF-295 CNS
# [10] = test system: SR leukemia
# [11] = test system: A498 renal
Compound,TGI [1] [µM],TGI [2] [µM],TGI [3] [µM],TGI [4] [µM],TGI [5] [µM],TGI [6] [µM],TGI [7] [µM],TGI [8] [µM],TGI [9] [µM],TGI [10] [µM],TGI [11] [µM]
Cc1cc(S(=O)(=O)Nc2nc3cc(-c4ccc(Cl)cc4)sc3c(=O)n2N)c(S)cc1Cl,> 100,> 100,> 100,> 100,> 100,> 100,55.3,> 100,> 100,–,–
CCC(=O)ONC(=O)Cn1ccc([N+](=O)[O-])n1,> 100,> 100,–,–,> 100,> 100,> 100,> 100,> 100,> 100,–
CC(C(O)Cc1ccccc1)N(C)N=Nc1ccc([N+](=O)[O-])cc1 (stereo unspecified),43.4,33.7,40.6,> 100,38.6,40.5,> 100,37.5,46.2,–,–
CC(=O)NC1c2ccccc2C(C)(C)C12CCC1(CC2)OCCO1 (stereo unspecified),> 100,> 100,> 100,> 100,> 100,> 100,> 100,> 100,> 100,> 100,–
OCc1ccc(C2CC(c3ccco3)=NN2c2ccccc2)o1 (stereo unspecified),> 100,–,> 100,> 100,> 100,–,> 100,> 100,> 100,> 100,–
CC1=C(CO)C(=O)O[C@@H]([C@@H](CO)[C@H]2CCC3C4C[C@@H](O)[C@@]5(O)CC=CC(=O)[C@]5(C)C4CC[C@@]32C)C1 (stereo partly specified),> 100,> 100,> 100,> 100,> 100,–,> 100,> 100,> 100,> 100,> 100
CC(=O)O[C@]12CCCCCC1C1(O)C(O)CCCC[C@H]12 (stereo partly specified),–,–,> 100,> 100,> 100,–,> 100,> 100,> 100,> 100,–
COc1ccc2cc(C(C)C(=O)N3CCOC3=O)ccc2c1 (stereo unspecified),> 100,> 100,–,> 100,> 100,> 100,> 100,> 100,> 100,> 100,> 100
Nc1ccn(C2OC(CO)C(O)C2O)c(=O)c1 (stereo unspecified),> 625,–,–,> 625,–,–,–,403,> 625,–,–
S=C(Nc1ccc2c(c1)oc1ccccc12)c1cccnc1,> 100,> 100,> 100,> 100,> 100,> 100,> 100,32.9,> 100,> 100,–
Cc1cc(NCc2ccccc2)c2ccccc2[n+]1CCCCCCCCCC[n+]1c(C)cc(NCc2ccccc2)c2ccccc21,> 100,1.74,2.08,> 100,2.44,5.16,–,–,2.49,–,14.5
COc1c(C(C)C)cc2c3c1OC(=O)[C@@]31CCCC(C)(C)C1CC2 (stereo partly specified),> 100,–,84,–,> 100,–,> 100,> 100,78.7,> 100,–
CN(C)c1ccc(C2SCC(=O)N2c2ccc(Oc3ccc(Cl)cc3)c(Cl)c2)cc1 (stereo unspecified),92.5,43.3,54.1,69,41.7,55.6,> 100,41,–,57.3,–
CC1=NNC(=O)C1C(CC(=O)c1c[nH]c2ccccc12)C(=O)O (stereo unspecified),> 100,> 100,> 100,–,> 100,> 100,> 100,> 100,> 100,–,> 100
O=c1c(C(c2ccc(Cl)cc2)c2c(O)c3ccccc3n(-c3ccccc3)c2=O)c(O)c2ccccc2n1-c1ccccc1,> 100,–,86.1,> 100,–,–,> 100,> 100,> 100,> 100,–
Cn1c2ccccc2c(=NNc2cccc(C(=O)O)c2)c2ccccc21,66.2,41,35.4,40.3,52,23.6,22.7,47.8,58.5,–,–
CC(C)NC(=O)OCCN=c1c2ccccc2ccc2ccccc12,> 100,> 100,73.4,> 100,> 100,72.5,71.2,> 100,> 100,80.6,–

Compound,TGI [1] [µM],TGI [2] [µM],TGI [3] [µM],TGI [4] [µM],TGI [5] [µM],TGI [6] [µM],TGI [7] [µM],TGI [8] [µM],TGI [9] [µM],TGI [10] [µM],TGI [11] [µM]
Cn1c2ccccc2c(=O)c2cccc(C(=O)NC(CCCN=C(N)N)C(=O)O)c21 (stereo unspecified),> 100,> 100,> 100,> 100,> 100,> 100,> 100,> 100,> 100,–,–
COc1cccc(/C=N/n2c(C)n[nH]c2=O)c1,–,> 100,> 100,> 100,> 100,> 100,> 100,> 100,> 100,–,> 100
Cn1c(COC(=O)Nc2ccccc2)c(COC(=O)Nc2ccccc2)c2ccc3cc(Cl)c(Cl)cc3c21,23.5,12.7,17.9,–,12.6,20.4,> 75,–,64.2,–,4.25
COc1ccc(C2OC(c3ccncc3)=NN2C)cc1OC (stereo unspecified),> 100,> 100,> 100,> 100,> 100,> 100,> 100,> 100,> 100,–,98.4
COC1C=COC2(C)Oc3c(C)c(O)c4c(O)c(c(C5SCCS5)c(O)c4c3C2=O)NC(=O)C(C)=C/C=C\C(C)C2OC(C)(C)OC(C2C)C(C)C(OC(C)=O)C1C (stereo unspecified),30.7,45.7,23.2,54.7,44,> 100,> 100,74.4,28.7,–,29.3
O=C1O[C@H](c2ccc3c(c2)OCO3)[C@H]2CO[C@@H](c3ccc4c(c3)OCO4)[C@@H]12,> 100,> 100,> 100,> 100,> 100,> 100,> 100,> 100,> 100,> 100,–
CCC/C(Cl)=N\OC(=O)Nc1ccc(OC(F)(F)F)cc1,22,25.8,32.9,39.8,26.1,32.8,4.59,35.5,31.7,–,54.8
Cc1ccc(S(=O)(=O)NC(=O)N[C@@H](Cc2cnc[nH]2)C(=O)O)cc1,> 100,> 100,> 100,> 100,> 100,> 100,> 100,> 100,> 100,–,–
O=c1oc2ccc([N+](=O)[O-])cc2c(Nc2ccc3c(c2)Oc2ccccc2O3)c1[N+](=O)[O-],> 100,37,44.2,> 100,67.9,55.4,–,> 100,> 100,72.4,–
COc1cc(OC)c(C2c3cc4c(cc3OC(N3CCCC3)C2C)OCO4)c(OC)c1 (stereo unspecified),52.8,–,57.7,–,53.8,49,31.6,40.1,36.1,29.6,–
CCC1(C)C=Cc2c(cc(O)c3c(=O)c4ccccc4n(C)c23)O1 (stereo unspecified),> 10,> 10,> 10,> 10,> 10,> 10,> 10,> 10,> 10,–,> 10
COc1ccc(C2COc3cc(O)c(O)cc3C2)cc1 (stereo unspecified),148,–,146,45.6,–,–,24.6,232,205,–,17.4
Cc1ccc(O)c(-c2cscn2)c1,> 100,–,> 100,> 100,> 100,> 100,> 100,> 100,> 100,> 100,70
COc1ccc(/C=C2\N=C(SC)NC2=O)cc1,> 100,> 100,> 100,> 100,> 100,> 100,> 100,> 100,> 100,–,–
CCOc1ccc(/C=C2/C(=O)N=C(NC(C)=O)N2C)cc1,> 100,> 100,> 100,> 100,> 100,–,> 100,> 100,> 100,–,> 100
Cc1nc2sc3ccccc3n2c(=O)c1N=Nc1ccc(Cl)cc1,> 100,> 100,> 100,> 100,> 100,> 100,> 100,> 100,> 100,> 100,–
CCOC(=O)C1C2CCC1CC(=NNc1ccc([N+](=O)[O-])cc1[N+](=O)[O-])C2 (stereo unspecified),> 50,> 50,> 50,> 50,> 50,> 50,> 50,> 50,> 50,> 50,–
